# Source: publication PMC9929232, “On-demand male contraception via acute inhibition of soluble adenylyl cyclase” (Nature Communications, 2023)
# “And” between values parts separate entries of the source, which are not always exact repeats. Equal entries are not always repeated.
# Columns and labels:
# human sperm = experiment: Acrosome reaction assay, human sperm, progesterone-evoked; format: cell-based; details: Fig. 2h replicates, 5 μM TDI-10229 or 10 nM TDI-11861
# Experimental: Acrosome reaction was induced by incubating mouse sperm with 50 mouse solubilized zonae pellucidae for 15 min at 37 °C. Human sperm were incubated with 10 μM progesterone for 30 min at 37 °C. […] Samples were air-dried on microscope slides and fixed for 30 minutes in 100% ethanol at room temperature (RT). For acrosome staining, mouse and human sperm were incubated for 30 min in the dark with 5 μg/ml PNA-FITC or 5 μg/ml PSA-FITC, respectively, and counterstained with 2 μg/ml DAPI. After curing, slides were analyzed using a Zeiss LSM 880 Laser Scanning Confocal Microscope; images were captured with two photomultiplier and one Gallium Arsenide Phosphide detector using ZEN Imaging software. For each condition, at least 600 cells were analyzed using ImageJ 1.52.
# epididymal mouse sperm [1] = experiment: Ex vivo motility (CASA) of epididymal sperm from inhibitor-treated male mice; format: in vivo
# Experimental: Sperm movements of 10 fields of at least 200 sperm were examined using computer-assisted sperm analysis (CASA) via Hamilton–Thorne digital image analyzer (IVOS II, Hamilton Thorne Research, Beverly, MA) with the following parameters: 30 frames, frame rate: 60 Hz, cell size: 30–170 μm^2. Ejaculated uterine mouse sperm were recorded without additional dilution. Sperm were considered motile when presenting STR ≥80% and VAP ≥50 μm/s and hyperactivated when presenting VCL ≥270 μm/s, LIN < 50%, and ALH ≥7 μm. Track´s color code: motile (green), progressive (turquoise), hyperactivated (purple), slow (pink), static (red), not counted due to late entry (yellow).
# epididymal mouse sperm [2] = experiment: Ex vivo cAMP generation in epididymal sperm from inhibitor-treated male mice (oral or i.p.)
# Experimental: For capacitation, sperm were incubated for 90 min in TYH containing 3 mg/ml BSA and 25 mM NaHCO3 in a 37 °C incubator. To control for the consequences of dilution during isolation of epididymal mouse sperm for ex vivo assays, we assessed the ability of bicarbonate to induce a prototypical pattern of tyrosine phosphorylation (pY) which is a widely used molecular hallmark of capacitation[53]. […] For experiments studying sperm from injected mice, ‘swim out’ was performed in 200 μl TYH, which corresponded to a 1:10 dilution from epididymis (20 μg cauda in 200 μl buffer). Capacitation-induced changes were assessed by adding 50 µl of ‘swim out’ sperm to increasing volumes of capacitating TYH buffer.
# Intracellular cAMP levels were quantified using the Direct cAMP ELISA kit (Enzo) as above.
# mouse sperm = experiment: cAMP generation in mouse sperm in vitro, incl. wash-out by dilution; details: 12 minutes
# Experimental: For capacitation, sperm were incubated for 90 min in TYH containing 3 mg/ml BSA and 25 mM NaHCO3 in a 37 °C incubator. To control for the consequences of dilution during isolation of epididymal mouse sperm for ex vivo assays, we assessed the ability of bicarbonate to induce a prototypical pattern of tyrosine phosphorylation (pY) which is a widely used molecular hallmark of capacitation[53]. Bicarbonate-induced pY is known to be sAC dependent in vitro[20],[22],[35]. For experiments studying sperm from injected mice, ‘swim out’ was performed in 200 μl TYH, which corresponded to a 1:10 dilution from epididymis (20 μg cauda in 200 μl buffer). Capacitation-induced changes were assessed by adding 50 µl of ‘swim out’ sperm to increasing volumes of capacitating TYH buffer.
# cAMP generation was measured in mouse and human sperm. […] For human sperm, aliquots of 2 × 10^6 cells were incubated for 30 min in the presence or absence of sAC inhibitor in non-capacitating or capacitating HTF buffer. In both cases, 0.1% DMSO was used as vehicle control.
# After 5 min, 150 µl of sperm/inhibitor mix was diluted into 1.35 ml non-capacitating or capacitating media with no inhibitor. […] Sperm lysates were centrifuged at 2000 × g for 3 min and the cAMP in the supernatant was acetylated and quantified using the Direct cAMP ELISA kit (Enzo).
# [3] = molecular target: T1, purified recombinant human sAC protein (Homo sapiens, UniProt Q96PN6); experiment: In vitro adenylyl cyclase activity assay (two-column method);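 for cyclase activity (%): 100% equals DMSO vehicle-treated control activity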; format: biochemical; details: for cyclase activity (%): Fig. 1c normalized replicates; for cyclase activity: Fig. 1c replicates
# T1 construct: human sACt protein was incubated
# T1 sequence (Q96PN6 1-469 limits assumed): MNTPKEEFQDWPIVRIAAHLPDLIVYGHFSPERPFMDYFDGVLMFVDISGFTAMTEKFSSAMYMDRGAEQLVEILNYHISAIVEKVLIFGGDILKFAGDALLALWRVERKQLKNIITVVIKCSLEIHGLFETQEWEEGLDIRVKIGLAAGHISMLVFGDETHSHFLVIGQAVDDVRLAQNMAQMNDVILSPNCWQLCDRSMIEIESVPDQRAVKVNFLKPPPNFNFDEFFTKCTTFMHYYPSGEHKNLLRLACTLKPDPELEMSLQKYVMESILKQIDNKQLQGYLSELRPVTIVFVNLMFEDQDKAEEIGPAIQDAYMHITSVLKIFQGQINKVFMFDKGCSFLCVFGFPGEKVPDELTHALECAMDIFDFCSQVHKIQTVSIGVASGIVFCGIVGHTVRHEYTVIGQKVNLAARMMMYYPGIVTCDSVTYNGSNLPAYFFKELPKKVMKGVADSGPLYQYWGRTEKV
# Experimental: All in vitro adenylyl cyclase activity assays were performed via the “two-column” method measuring the conversion of [α-^32P] ATP into [^32P] cAMP[54], as previously described. Briefly, human sACt protein was incubated in buffer containing 50 mM Tris-HCl, pH 7.5, 4 mM MgCl2, 2 mM CaCl2, 1 mM ATP, 3 mM DTT, 40 mM NaHCO3 in the presence of the indicated concentrations of different sAC inhibitors or vehicle (1% DMSO).
# [4] = sheet Fig. 2a replicates, 5 μM TDI-10229 or 10 nM TDI-11861 present
# [5] = sheet Fig. 2b replicates, 5 min preincubation in 5 μM TDI-10229 or 10 nM TDI-11861, diluted 1:100 into inhibitor-free media
# [6] = concentration (uM) -0.52288 [sic]
# [7] = concentration (uM) -1.95424 [sic]
# [8] = concentration (uM) -2.43136 [sic]
# [9] = concentration (uM) -2.90848 [sic]
# [10] = concentration (uM) -3.38561 [sic]
# [11] = concentration (uM) printed 0.477121
# [12] = concentration (uM) printed -1.47712
smiles,measurement,setting,value
"Cc1c(Cc2ccccc2)c(-c2cc(Cl)nc(N)n2)nn1C [TDI-10229, reference compound]","Acrosome reacted (%), Prog",human sperm; 10 μM progesterone,8% and 18.1667% and 7.5% and 9% and 9.5% and 17.6667% and 10%
same,"Acrosome reacted (%), Prog + db-cAMP/IBMX","human sperm; 10 μM progesterone, 5 mM db-cAMP/500 μM IBMX",23% and 28.6636% and 15.5% and 15% and 16% and 30.6613% and 17.1667%
same,"Acrosome reacted (%), basal + db-cAMP/IBMX",human sperm; 5 mM db-cAMP/500 μM IBMX,8.5% and 15.8333% and 7.5% and 6.5% and 7% and 21.8333% and 11.3333%
same,"Acrosome reacted (%), basal",human sperm; 180 min capacitating media,6% and 15.1667% and 8% and 7% and 7.5% and 16.3548% and 6.667%
same,motility of epididymal sperm diluted ex vivo,epididymal mouse sperm [1]; 50 mg/kg oral,motile and indistinguishable from sperm from vehicle-treated mice
same,motility (%),"epididymal mouse sperm [1]; Fig. 3b replicates, 50 mg/kg oral gavage, 1 hour, diluted 1:100 in inhibitor-free non-capacitating media, CASA, 50 mg/kg",34.7% and 36.8% and 35.1% and 36.4% and 29.7% and 32.4% and 30.6% and 26% and 32% and 33.4% and 29.4%
same,motility (%),"epididymal mouse sperm [1]; Fig. 3d, individual replicates",19.9% and 28.3% and 25% and 29.5% and 30.2% and 35.4% and 40.7% and 41.4% and 42.3%
same,"bicarbonate-induced cAMP response, sperm directly isolated",epididymal mouse sperm [2]; 50 mg/kg i.p.,prevented bicarbonate-induced increase in cAMP
same,"bicarbonate-induced cAMP response, sperm measured directly","epididymal mouse sperm [2]; 50 mg/kg oral, 1 hour, cauda sperm",no bicarbonate-induced increase in cAMP
same,"normalized cAMP, diluted","epididymal mouse sperm [2]; Fig. 3a replicates, 50 mg/kg oral gavage, 100-fold dilution into inhibitor-free media, capacitating relative to non-capacitated, 50 mg/kg",2.085 and 1.745 and 2.432 and 2.093 and 1.3062 and 3.591 and 2.931 and 3.583
same,"normalized cAMP, non-diluted","epididymal mouse sperm [2]; Fig. 3a replicates, 50 mg/kg oral gavage, capacitating relative to non-capacitated sperm of same mouse, 12 minutes, 50 mg/kg",1.449 and 1.743 and 0.3 and 0.7791 and 0.9239 and 0.4534 and 0.1485 and 0.05415
same,"normalize cAMP, diluted","epididymal mouse sperm [2]; Fig. 3c replicates, 50 mg/kg i.p., 100-fold dilution into inhibitor-free media, capacitating relative to non-capacitated, 50 mg/kg",1.94 and 1.936 and 3.937 and 2.155 and 1.983 and 3.104 and 1.124 and 4 and 3.176 and 2.922 and 1.239
same,"normalize cAMP, non-diluted","epididymal mouse sperm [2]; Fig. 3c replicates, 50 mg/kg i.p., capacitating relative to non-capacitated sperm of same mouse, 12 minutes, 50 mg/kg",0.2801 and 0.5834 and 0.6474 and 0.2247 and 1.279 and 0.9423 and 1.0897 and 0.542 and 0.3506 and 1.1072 and 1.1267
same,"cAMP, capacitation media",mouse sperm; [4],0.708 pmol/10^6 sperm and 0.223 pmol/10^6 sperm and 0.8377 pmol/10^6 sperm and 0.328 pmol/10^6 sperm and 0.317 pmol/10^6 sperm and 0.164 pmol/10^6 sperm and 0.248 pmol/10^6 sperm and 0.209 pmol/10^6 sperm and 0.814 pmol/10^6 sperm and 0.028 pmol/10^6 sperm
same,"cAMP, non-capacitation media",mouse sperm; [4],0.791 pmol/10^6 sperm and 0.172 pmol/10^6 sperm and 0.69 pmol/10^6 sperm and 0.464 pmol/10^6 sperm and 0.354 pmol/10^6 sperm and 0.286 pmol/10^6 sperm and 0.57 pmol/10^6 sperm and 0.578 pmol/10^6 sperm and 1.32 pmol/10^6 sperm and 0.473 pmol/10^6 sperm
same,"cAMP, capacitation media",mouse sperm; [5],0.7514 pmol/10^6 sperm and 0.838 pmol/10^6 sperm and 0.907 pmol/10^6 sperm and 0.4366 pmol/10^6 sperm and 0.08556 pmol/10^6 sperm and 0.441 pmol/10^6 sperm and 0.751 pmol/10^6 sperm and 1.195 pmol/10^6 sperm
same,"cAMP, non-capacitation media",mouse sperm; [5],0.7446 pmol/10^6 sperm and 0.94 pmol/10^6 sperm and 1.147 pmol/10^6 sperm and 0.8426 pmol/10^6 sperm and 0.7363 pmol/10^6 sperm and 0.601 pmol/10^6 sperm and 0.752 pmol/10^6 sperm and 1.525 pmol/10^6 sperm
same,cyclase activity (%),[3]; concentration (uM) 0,9.237% and 13.938% and 16.2416% and 14.0981% and 17.1651% and 16.2955%
same,cyclase activity (%),[3]; [6],31.1405% and 32.9975% and 35.8708% and 34.2006% and 36.7402% and 35.3317%
same,cyclase activity (%),[3]; concentration (uM) -1 [sic],63.6617% and 56.9124% and 60.5839% and 60.8807% and 64.5679% and 61.7683%
same,cyclase activity (%),[3]; [7],97.3105% and 99.8737% and 91.8341% and 99.076% and 99.9562% and 83.5123%
same,cyclase activity (%),[3]; [8],102.738% and 99.4561% and 103.778% and 98.5001% and 102.473% and 98.7264%
same,cyclase activity (%),[3]; [9],99.2726% and 96.965% and 102.643% and 103.079% and 106.167% and 104.578%
same,cyclase activity (%),[3]; [10],100%
same,cyclase activity (%),[3]; [11],2.892% and 2.778% and 4.319% and 3.785% and 3.6574% and 3.195%
same,cyclase activity (%),[3]; concentration (uM) printed 1,0%
same,cyclase activity (%),[3]; [12],87.3934% and 85.1243% and 83.28% and 86.7752% and 79.7419% and 79.6259%
same,cyclase activity,[3]; concentration (uM) 0,4537 and 5556.7 and 5828.8 and 5224.3 and 5509.4 and 5355.1
same,cyclase activity,[3]; [6],10764.2 and 10900.3 and 11166.7 and 10456.8 and 10112.3 and 9643.4
same,cyclase activity,[3]; concentration (uM) -1 [sic],20009.8 and 17605.2 and 17887.1 and 17401.4 and 16655.7 and 15598.8
same,cyclase activity,[3]; [7],29576 and 29650 and 26385.2 and 27343.3 and 24976.9 and 20497.1
same,cyclase activity,[3]; [8],31119 and 29532.9 and 29633.3 and 27193.4 and 25568.8 and 23924.4
same,cyclase activity,[3]; [9],30133.8 and 28834.5 and 29324.4 and 28385.2 and 26437.3 and 25242.7
same,cyclase activity,[3]; [10],30340.6 and 29685.4 and 28605.8 and 27583.8 and 24987.2 and 24211.3
same,cyclase activity,[3]; [11],2733.4 and 2427.8 and 2586.5 and 2539.8 and 2333.2 and 2403.9
same,cyclase activity,[3]; concentration (uM) printed 1,1911.1 and 1649 and 1412.1 and 1554.7 and 1473.2 and 1684.2
same,cyclase activity,[3]; [12],26756.6 and 25514.8 and 24059 and 24141.5 and 20223.7 and 19621.6
